Columns and labels:
H322 = test: Therapeutic effect of cancer cell line, IC50; type: cell-based; conditions: NCI-H322; H322, NAPRT expression negative
H661 = test: Therapeutic effect of cancer cell line, IC50; type: cell-based; conditions: Homo sapiens, NCI-H661; H661, NAPRT expression negative
H1115 = test: Therapeutic effect of cancer cell line, IC50; type: cell-based; conditions: H1115, NAPRT expression negative
[1] = test system: H322, H661, H1155, H1993, H1975, H2030, H1299, H2122 and HBEC30; test: Viability of various cancer cell lines by concentration (NAPRT positive vs negative); type: cell-based
Primary cardiomyocyte = test: Toxicity assessment in normal cell line, cell viability; type: cell-based; conditions: high concentrations
[2] = test system: retinal pigment epithelium cell (RPE); test: as above; type: cell-based; conditions: high concentrations
liver cell (THLE-2) = test: as above; type: cell-based
liver cell (THLE-3) = test: Toxicity evaluation in normal cell line, cell viability; type: cell-based
[3] = Microsome stability evaluation; type: in vitro ADME, human; conditions: after 30 minutes, 1 μM compound, 0.3 mg/ml microsomal protein, 1 mM NADPH
Protocol: (§1) Metabolic stability was assessed using human liver microsomes and mouse liver microsomes. Specifically, pooled male mouse liver microsomes (in-house preparation per SOP), pooled human liver microsomes (XENOTECH; […] The reaction was stopped by addition of acetonitrile ([…]) containing the same volume of internal standard. The precipitated proteins were removed by centrifugation and the supernatant was analyzed by LC/MS-MS method. […] Residual % parent compound=(peak area at time x/peak area at TO)×100.

[4] = Microsome stability evaluation; type: in vitro ADME, mouse; conditions: after 30 minutes, 1 μM compound, 0.3 mg/ml microsomal protein, 1 mM NADPH
Protocol: as §1

H1299 = test: Therapeutic effect of cancer cell line, IC50; type: cell-based; conditions: Homo sapiens, NCI-H1299; H1299, NAPRT expression positive
H1975 = test: Therapeutic effect of cancer cell line, IC50; type: cell-based; conditions: Homo sapiens, NCI-H1975; H1975, NAPRT expression positive
H1993 = test: Therapeutic effect of cancer cell line, IC50; type: cell-based; conditions: Homo sapiens, NCI-H1993; H1993, NAPRT expression positive
H2030 = test: Therapeutic effect of cancer cell line, IC50; type: cell-based; conditions: Homo sapiens, NCI-H2030; H2030, NAPRT expression positive
H2122 = test: Therapeutic effect of cancer cell line, IC50; type: cell-based; conditions: Homo sapiens, NCI-H2122; H2122, NAPRT expression positive
HBEC30 = test: Therapeutic effect of cancer cell line, IC50; type: cell-based; conditions: HBEC30, NAPRT expression positive
hERG channel = hERG channel (Homo sapiens, UniProt Q12809); test: hERG screening by fluorescence polarization with red fluorescent hERG channel ligand tracer; type: binding; conditions: probe high affinity red fluorescent hERG channel ligand tracer, mean±standard deviation, read-out: % inhibition capacity
hERG K+ channel = hERG K+ channel (Homo sapiens, UniProt Q12809); test: hERG K+ channel activity evaluation, patch clamp
Sequence of hERG K+ channel (Q12809 whole entry): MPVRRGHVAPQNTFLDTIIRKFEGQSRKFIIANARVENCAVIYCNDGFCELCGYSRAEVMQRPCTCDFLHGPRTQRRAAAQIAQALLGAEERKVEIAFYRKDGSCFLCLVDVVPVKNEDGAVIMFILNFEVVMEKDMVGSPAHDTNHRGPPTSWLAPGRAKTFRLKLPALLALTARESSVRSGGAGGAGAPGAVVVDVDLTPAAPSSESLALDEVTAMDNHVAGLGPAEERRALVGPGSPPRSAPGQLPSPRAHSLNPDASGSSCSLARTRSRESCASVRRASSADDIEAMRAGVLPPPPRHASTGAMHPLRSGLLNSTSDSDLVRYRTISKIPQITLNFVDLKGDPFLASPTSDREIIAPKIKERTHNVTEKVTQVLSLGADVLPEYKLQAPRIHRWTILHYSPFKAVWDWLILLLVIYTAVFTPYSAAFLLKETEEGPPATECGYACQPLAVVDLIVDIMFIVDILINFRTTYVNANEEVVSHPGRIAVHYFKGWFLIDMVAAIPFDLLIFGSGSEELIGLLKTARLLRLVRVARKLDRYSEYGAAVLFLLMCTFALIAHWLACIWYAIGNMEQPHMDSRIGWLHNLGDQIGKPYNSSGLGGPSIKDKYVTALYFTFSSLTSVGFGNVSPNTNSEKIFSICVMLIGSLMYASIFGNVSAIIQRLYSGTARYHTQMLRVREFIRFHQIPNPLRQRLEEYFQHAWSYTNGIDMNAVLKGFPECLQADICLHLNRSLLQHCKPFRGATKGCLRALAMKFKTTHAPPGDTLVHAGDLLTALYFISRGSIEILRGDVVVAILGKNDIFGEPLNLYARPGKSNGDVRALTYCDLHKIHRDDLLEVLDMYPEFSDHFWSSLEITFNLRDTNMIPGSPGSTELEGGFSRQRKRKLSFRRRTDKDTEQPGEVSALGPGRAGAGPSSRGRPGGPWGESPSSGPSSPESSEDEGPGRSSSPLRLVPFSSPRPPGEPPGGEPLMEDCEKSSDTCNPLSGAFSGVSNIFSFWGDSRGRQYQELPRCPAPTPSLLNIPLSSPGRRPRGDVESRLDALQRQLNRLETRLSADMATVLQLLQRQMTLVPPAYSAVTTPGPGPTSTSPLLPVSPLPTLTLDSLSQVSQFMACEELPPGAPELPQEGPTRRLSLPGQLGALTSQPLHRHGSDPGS
Protocol: In addition, as the hERG K+ channel activity evaluation, the potential risk of log QT prolongation according to the dose used was evaluated by measuring the current inhibition according to the drug using a patch clamp technique and evaluating the IC50.

Sequence of hERG channel (Q12809 whole entry): as above

| Compound | IC50 (H322) | IC50 (H661) | IC50 (H1115) | other results |
| --- | --- | --- | --- | --- |
| O=C(NCc1ccc(S(=O)(=O)N2CCOCC2)cc1)c1cccnc1 [B1977] | 6.25 µM | – | – | – |
| O=C(NCc1ccc(S(=O)(=O)N2CCCCC2)cc1)c1cccnc1 [B1981] | 3.1 µM | – | – | – |
| Cc1ccc2nc(-c3ccc(CNC(=O)c4ccccc4)cc3)oc2c1 [A4303] | 10 µM | 10 µM | 10 µM | – |
| O=C(NCCNC(=O)c1nc2ccccc2s1)c1cccnc1 [B1873] | 5 µM | – | – | – |
| O=C(NCc1ccc(-c2nc3cc(-c4ccccc4)ccc3o2)cc1)c1cccnc1 [A4262] | 0.03 µM | 30 µM | < 0.1 µM | – |
| Cn1/c(=N/NC(=O)/C=C/c2cccnc2)sc2ccccc21 [B1983] | 0.3 µM | – | – | – |
| COC(=O)c1ccc(CCNC(=O)c2ccc3nccn3c2)cc1 [B1531] | 6.25 µM | – | – | – |
| O=C(/C=C/c1cccnc1)N1CCN(Cc2csc(-c3ccco3)n2)CC1 [B1976] | 10 µM | – | – | – |
| O=C(NCCNC(=O)c1nc(-c2cccs2)no1)c1cccnc1 [B1863] | 12.5 µM | – | – | – |
| O=C(Nc1ccc(-c2nn3cnnc3s2)cc1)c1cccnc1 [B1523] | 1.56 µM | – | – | – |
| Cc1ccc2oc(-c3ccc(CNC(=O)c4cccnc4)cc3)nc2c1 [A4275] | 0.03 µM | < 0.3 µM | < 0.3 µM | – |
| O=C(/C=C/c1cccnc1)NCCCCC1CCN(C(=O)c2ccccc2)CC1 [FK866, N-[4-(1-benzoyl-4-piperidinyl)butyl]-3-(3-pyridinyl)-2E-propenamide] | – | – | – | difference in LD50 values between the NAPRT positive cell line and the negative cell line [1]: approximately 10 times; cytotoxicity (cell viability) (Primary cardiomyocyte): unpredictable cytotoxicity; cytotoxicity (cell viability) [2]: unpredictable cytotoxicity; IC50 (liver cell (THLE-2); Homo sapiens, THLE-2, FIG. 25): ~0.05 µM; cytotoxicity (cell viability) (liver cell (THLE-2); THLE-2, high concentrations): unpredictable cytotoxicity; IC50 (liver cell (THLE-3); THLE3, THLE-3, FIG. 26): ~0.05 µM; Human(%) parent compound remaining [3]: 25.48 ± 1.45%; Mouse(%) parent compound remaining [4]: 10.26 ± 0.91% |
| O=C(Nc1ccc(C(=O)OC2CCCCC2)cc1)c1cccnc1 [B1477] | < 0.024 µM | > 1 µM | > 1 µM | IC50 (H1299): < 100 µM; IC50 (H1975): > 100 µM; IC50 (H1993): < 100 µM; IC50 (H2030): < 100 µM; IC50 (H2122): 31.6 µM; IC50 (HBEC30): > 100 µM; toxicity (liver cell (THLE-2); THLE-2, very high concentrations of 50 μM): little toxicity; toxicity (liver cell (THLE-3); THLE-3, very high concentrations of 50 μM): little toxicity |
| CCc1nnc2sc(-c3ccc(NC(=O)c4cccnc4)cc3)nn12 [B1485] | 0.03 µM | – | – | – |
| Cc1nccn1-c1ccc(CNC(=O)c2cccnc2)cc1 [B1967] | 12.5 µM | – | – | – |
| CCc1nnc2sc(-c3ccc(CNC(=O)c4cccnc4)cc3)nn12 [B1423] | 0.6 µM | > 1 µM | 1 µM | IC50 (H1299): > 100 µM; IC50 (H1975): > 100 µM; IC50 (H1993): > 100 µM; IC50 (H2030): > 100 µM; IC50 (H2122): > 100 µM; IC50 (HBEC30): > 100 µM |
| O=C(NCc1ccc(-c2nc3ncccc3o2)cc1)c1cccnc1 [B1472] | 0.3 µM | – | – | – |
| O=C(NCCNC(=O)c1nc(-c2ccc(Cl)cc2)no1)c1cccnc1 [B1856] | 12.5 µM | – | – | – |
| O=C1CC2(CCCC2)CC(=O)N1CCCCN1CCN(c2ncccn2)CC1 [Buspirone, reference compound] | – | – | – | Human(%) parent compound remaining [3]: 0.101 ± 0.028%; Mouse(%) parent compound remaining [4]: 3.189 ± 1.078% |
| O=C(NCc1ccc(-c2nc3ccccc3s2)cc1)c1cccnc1 [B1469] | 0.06 µM | – | – | – |
| O=C(NCc1ccc(-c2nc3cc4ccccc4cc3o2)cc1)c1cccnc1 [A4265, N-(4-(naphtho[2,3-d]oxazol-2-yl)benzyl)nicotinamide] | 0.003 µM | < 0.03 µM | 0.01 µM | Human(%) parent compound remaining [3]: 81.11 ± 4.76%; Mouse(%) parent compound remaining [4]: 78.24 ± 6.49%; inhibition at 10 µM (hERG channel): 7.44 ± 3.12%; IC50 (hERG K+ channel): > 100 µM |
| O=C(NCc1ccc(N2CCCCC2)cc1)c1cccnc1 [B1978] | 1.2 µM | – | – | – |
| O=C(NCc1ccc(-c2nc3ccc(Cl)cc3o2)cc1)c1cccnc1 [A4266, N-(4-(6-chlorobenzo[d]oxazol-2-yl)benzyl)nicotinamide] | 0.03 µM | 0.1 µM | 0.03 µM | Human(%) parent compound remaining [3]: >99%; Mouse(%) parent compound remaining [4]: 89.3 ± 3.12%; inhibition at 10 µM (hERG channel): < 1%; IC50 (hERG K+ channel): > 100 µM |

From patent US11795163B2, “Compound for inhibiting nicotinamide phosphoribosyltransferase and composition containing same” (CHECKMATE THERAPEUTICS INC., priority 2016, dated 2023)
